# From patent US9790180B2, “Piperidine derivatives as HDAC1/2 inhibitors” (Acetylon Pharmaceuticals, Inc., priority 2014, dated 2017)
# Like-named read-outs stand apart in the source and are kept apart here.
# How the values were obtained:
# [1] = Rat cassette pharmacokinetics; format: in vivo; conditions: male, SD, plasma; for bioavailability: 5 mg/kg, rat, oral AUC to IV AUC, dose adjusted; for AUC / Cmax / half-life / CL renal: rat cassette dosing; for AUC / Cmax / half-life: 5 mg/kg PO; for half-life: read-out: PO T½ (converted); for CL renal: IV 1 mg/kg, read-out: IV Clr. (converted)
# Method: Male SD rats were fasted overnight. Compounds of the invention were dissolved in dimethyl acetamide at 10 times the final concentration, then Solutol HS 15 (BASF) was added to a final concentration of 10%. Finally 80% saline was added and vortexed to achieve a clear solution. For the IV dosing three animals were injected via the foot dorsal vein with 1 mg/kg compound. For the PO dosing 5 mg/kg of compound was delivered by oral gavage. Blood was collected via the tail vein into K2EDTA tubes at 5 minutes, 15 minutes, 30 minutes, 1 hour, 2 hours, 4 hours, 8 hours and 24 hours after dosing. The blood was centrifuged at 2000 g for 5 minutes at 4° C. to obtain plasma. The plasma was extracted with acetonitrile and the level of compound was analyzed by LC/MS/MS. The level of compound in plasma was calculated from a standard curve in rat plasma. The IV clearance and area under the curve were calculated using WinNonLin software. The dose adjusted area under the curve for the IV and oral dosing were used to calculate the oral bioavailability.
# HDAC1 = HDAC1 (Homo sapiens (Human), UniProt Q13547); test: HDAC enzyme assay, HDAC1; format: biochemical
# Method: (§1) Compounds for testing were diluted in DMSO to 50 fold the final concentration and a ten point three fold dilution series was made. The compounds were diluted in assay buffer (50 mM HEPES, pH 7.4, 100 mM KCl, 0.001% Tween-20, 0.05% BSA, 20 μM tris(2-carboxyethyl)phosphine) to 6 fold their final concentration. The HDAC enzymes (purchased from BPS Biosciences) were diluted to 1.5 fold their final concentration in assay buffer and pre-incubated with the compounds for 24 hours prior to addition of the substrate.
# (§2) The substrate tripeptide substrate 3 (synthesized in house) for each enzyme was equal to the Km as determined by a substrate titration curve. The substrates were diluted in assay buffer at 6× their final concentration with 0.3 μM sequencing grade trypsin (Sigma). The substrate/trypsin mix was added to the enzyme/compound mix, the plate was shaken for 60 seconds and placed into a Spectramax M5 microtiter plate reader. The development of fluorescence was monitored for 30 min and the linear rate of the reaction was calculated. The IC50 was determined using Graph Pad Prism by a four parameter curve fit. The IC50 values obtained for the compounds of this invention are found in Table 1. Examples of the curves are found in FIGS. 1 and 4.
# [2] = test system: fetal β-like globin (HbG, γ); test: Fetal globin induction assay in CD34+ cells isolated from human bone marrow; format: cell-based; conditions: for Cell based assay potency: lowest concentration to achieve a 2 fold increase in fetal globin gene expression over baseline
# Method: CD34+ cells isolated from human bone marrow were cultured in vitro using a method described by Bradner J E (Proc Natl Acad Sci USA. 2010 Jul. 13; 107(28):12617-22), which consists of a 7 day expansion phase in media that supports differentiation of cells towards the erythroid lineage followed by a differentiation phase for 3 days where erythroid cell development continues. At the end of the differentiation period these cells are primarily late erythroblasts. mRNA levels were determined by quantitative real time PCR using primer/probe sets designed to adult major β-globin (β), adult minor β-globin (δ), fetal β-like globin (HbG, γ), and embryonic β-like globin (ε). Protein levels were determined by flow cytometry using fluorescent antibodies against fetal hemoglobin (HbF) or adult hemoglobin (HbA).
# In the experiment shown in FIG. 3, cells were differentiated in the presence of vehicle (DMSO) 0.3, 1 and 3 μM of Compound A, and of 0.3, 1, and 3 μM of Compound 003. In the experiment shown in FIG. 6, cells were differentiated in the presence of vehicle (DMSO) 0.3, 1 and 3 μM of Compound A, and of 0.3, 1, and 3 μM of Compound 005. Globin mRNA levels were determined at day 3 of differentiation.
# Microsome stability = format: in vitro ADME
# HDAC2 = HDAC2 (Homo sapiens (Human), UniProt Q92769); test: HDAC enzyme assay, HDAC2; format: biochemical
# Method: as §1, §2
# hERG channel = hERG channel (Homo sapiens (Human), UniProt Q12809); test: hERG assay (QPatch, CHO cell line expressing hERG channels); format: cell-based; conditions: for hERG: In vitro tox
# Method: For hERG assays, a CHO cell line stably transfected with hERG cDNA and expressing hERG channels were seeded into a QPatch plate (Sophion) at a density of 3-8×10^6 cells/ml. The cells were voltage clamped at a holding potential of −80 mV. The hERG current was activated by depolarizing at +20 mV for 5 sec, after which the current was taken back to −50 mV for 5 sec to remove the inactivation and observe the deactivating tail current. The maximum amount of tail current size was used to determine hERG current amplitude. Six doses (30, 10, 3, 1, 0.3 and 0.1 μM) of Compound 003 were chosen to obtain fitting curves and IC50. Data were analyzed using Assay Software provided by Sophion and Graphpad Prism.
# HDAC3 = HDAC3 (Homo sapiens (Human), UniProt O15379); test: HDAC enzyme assay, HDAC3; format: biochemical
# Method: as §1, §2
# Solubility = format: physicochemical
# [3] = test system: CYP1A2, CYP2C9, CYP2C19, CYP3A4, CYP2D6; test: Cyp inhibition in human liver microsomes; format: in vitro ADME; conditions: for Cyp: In vitro tox, human liver microsomes
# Method: For Cyp inhibition, human live microsomes from BD Gentest were incubated with Compound 003 (10, 3.33, 1.11, 0.37, 0.12, 0.04, 0.01 μM) and substrate (CYP1A2: Phenacetin at 30 μM; CYP2C9: Diclofenac at 10 μM; CYP2C19: S-Mephenytoin at 35 μM; CYP3A4: Midazolam at 5 μM and Testosterone at 80 μM; CYP2D6: Bufuralol at 10 μM) for the following incubation times: CYP1A2, 2C9, 2D6: 10 minutes, 37° C.; CYP2C19: 45 minutes, 37° C.; CYP3A4: 5 minutes, 37° C. Substrate conversion was measured by liquid chromatography/mass spectrometry/mass spectrometry (LC/MS/MS). Inhibition was calculated by curve fitting in Graph Pad Prism.
# [4] = test system: bacterial tester strains TA98, TA100, TA1535 and TA97a and E. coli tester strain WP2 uvrA; test: Ames genotoxicity (bacterial reverse mutation)
# Method: For genotoxicity, bacterial tester strains TA98, TA100, TA1535 and TA97a as described by Ames et al. (1975) and the E. coli tester strain WP2 uvrA as described by Green and Muriel (1976) were incubated with Compound 003 at 250, 75, 25, 7.5, 2.5, 0.75, 0.25, and 0.075 μg/well in 24 well plates either with or without liver homogenate (S9) purchased commercially (MolTox; Boone, N.C.) prepared from male Sprague Dawley rats that have been injected intraperitonealy with Aroclor 1254 (200 mg/mL in corn oil), at a dose of 500 mg/kg, 5 days before sacrifice. Mutagenicity is evaluated by counting the number of colonies that form on non-permissive media.
# [5] = test system: human peripheral blood lymphocytes (HPBL); test: Micronucleus formation assay; format: cell-based
# Method: Genotoxicity was further evaluated by micronucleus formation assay in human peripheral blood lymphocytes (HPBL). HPBL were obtained from healthy donors and exposed to Compound 003 at […] for 4 hours with or without S9 activation. The cells were washed with PBS and incubated in complete medium with 6 μg/ml cytocholasin B for 24 hours. The cells were then lysed, fixed, and mounted on microscope slides. The number of mononucleated, binucleated, and micronucleated cells was counted under blinded conditions.
# Gata2 mRNA = Gata2 mRNA induction in erythroid progenitors; format: cell-based, human; conditions: primary erythroid progenitors, 3 days differentiation, relative to beta-actin mRNA (FIG. 7)
# Source text: Human bone marrow derived CD34+ cells were expanded for 7 days as described by Sankaran et al., Science, vol. 322(5909), pp. 1839-42 (2008). Cells were then differentiated, in the presence of the indicated concentration of Compound 005, Compound A (another known HDAC1/2 inhibitor), or vehicle control (DMSO), for 3 days in media supporting erythropoiesis (Hu et al., “Isolation and functional characterization of human erythroblasts at distinct stages: implications for understanding of normal and disordered erythropoiesis in vivo”, Blood, vol. 121(16), pp. 3246-53 ([…])). Gata2 mRNA was determined using quantitative real time PCR and expressed relative to the level beta-actin mRNA control.
# [6] = 24 hours pre-incubation with enzyme, read-out: IC50 (nM) HDAC1
# [7] = 24 hours pre-incubation with enzyme, read-out: IC50 (nM) HDAC2
# [8] = 24 hours pre-incubation with enzyme, read-out: IC50 (nM) HDAC3
# Sequence of HDAC1 (Q13547 whole entry): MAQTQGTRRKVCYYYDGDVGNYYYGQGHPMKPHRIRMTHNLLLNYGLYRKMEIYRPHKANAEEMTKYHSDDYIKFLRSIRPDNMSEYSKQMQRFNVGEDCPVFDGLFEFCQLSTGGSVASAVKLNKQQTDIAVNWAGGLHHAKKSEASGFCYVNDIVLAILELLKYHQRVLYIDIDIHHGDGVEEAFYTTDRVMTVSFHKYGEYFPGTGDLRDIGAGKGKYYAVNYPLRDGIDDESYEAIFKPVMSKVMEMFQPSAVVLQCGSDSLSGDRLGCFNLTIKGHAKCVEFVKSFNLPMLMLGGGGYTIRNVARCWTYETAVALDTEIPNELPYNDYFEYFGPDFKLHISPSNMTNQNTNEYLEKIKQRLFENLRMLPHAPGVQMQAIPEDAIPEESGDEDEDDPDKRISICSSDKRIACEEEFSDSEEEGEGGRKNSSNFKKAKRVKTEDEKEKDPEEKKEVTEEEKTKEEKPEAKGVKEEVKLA
# Sequence of hERG channel (Q12809 whole entry): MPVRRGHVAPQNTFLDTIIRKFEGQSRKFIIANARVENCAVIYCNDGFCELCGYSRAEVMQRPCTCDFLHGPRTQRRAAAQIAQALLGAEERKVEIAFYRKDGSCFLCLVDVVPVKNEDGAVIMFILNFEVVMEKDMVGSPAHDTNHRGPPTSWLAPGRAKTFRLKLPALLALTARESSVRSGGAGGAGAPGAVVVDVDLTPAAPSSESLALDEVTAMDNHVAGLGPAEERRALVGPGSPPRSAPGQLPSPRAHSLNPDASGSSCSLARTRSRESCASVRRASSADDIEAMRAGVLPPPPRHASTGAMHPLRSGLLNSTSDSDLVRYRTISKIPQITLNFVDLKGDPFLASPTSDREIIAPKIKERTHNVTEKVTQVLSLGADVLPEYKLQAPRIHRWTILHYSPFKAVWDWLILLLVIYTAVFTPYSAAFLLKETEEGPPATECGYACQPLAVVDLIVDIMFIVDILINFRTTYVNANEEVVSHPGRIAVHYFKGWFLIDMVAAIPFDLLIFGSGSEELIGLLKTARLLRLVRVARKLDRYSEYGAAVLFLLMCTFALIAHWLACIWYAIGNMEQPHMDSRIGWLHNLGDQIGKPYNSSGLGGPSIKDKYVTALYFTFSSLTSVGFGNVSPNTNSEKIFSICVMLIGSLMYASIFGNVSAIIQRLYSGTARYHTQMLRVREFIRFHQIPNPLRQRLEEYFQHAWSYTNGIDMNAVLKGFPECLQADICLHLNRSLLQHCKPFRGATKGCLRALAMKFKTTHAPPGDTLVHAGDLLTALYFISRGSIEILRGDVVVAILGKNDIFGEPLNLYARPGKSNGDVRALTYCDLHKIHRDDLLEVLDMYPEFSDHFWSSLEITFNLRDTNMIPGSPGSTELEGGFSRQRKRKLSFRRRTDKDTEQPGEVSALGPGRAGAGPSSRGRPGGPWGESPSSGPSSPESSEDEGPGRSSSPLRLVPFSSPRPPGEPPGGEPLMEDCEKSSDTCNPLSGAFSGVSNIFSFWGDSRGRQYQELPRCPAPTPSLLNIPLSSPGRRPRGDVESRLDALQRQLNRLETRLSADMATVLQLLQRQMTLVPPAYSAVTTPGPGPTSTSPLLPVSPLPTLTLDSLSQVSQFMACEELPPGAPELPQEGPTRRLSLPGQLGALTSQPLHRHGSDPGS
# Sequence of HDAC3 (O15379 whole entry): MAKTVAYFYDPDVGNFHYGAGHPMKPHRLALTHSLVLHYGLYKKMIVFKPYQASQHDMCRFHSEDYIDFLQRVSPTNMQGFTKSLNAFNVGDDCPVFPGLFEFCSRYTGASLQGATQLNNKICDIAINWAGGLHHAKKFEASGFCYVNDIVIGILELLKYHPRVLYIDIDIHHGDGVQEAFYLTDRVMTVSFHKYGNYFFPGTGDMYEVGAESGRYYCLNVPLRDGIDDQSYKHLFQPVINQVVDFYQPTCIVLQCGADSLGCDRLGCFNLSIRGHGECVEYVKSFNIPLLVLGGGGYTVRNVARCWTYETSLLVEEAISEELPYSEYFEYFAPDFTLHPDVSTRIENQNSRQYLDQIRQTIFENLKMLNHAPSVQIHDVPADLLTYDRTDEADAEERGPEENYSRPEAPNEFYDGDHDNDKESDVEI
# Sequence of HDAC3 (Q9Y618 395-489 partner): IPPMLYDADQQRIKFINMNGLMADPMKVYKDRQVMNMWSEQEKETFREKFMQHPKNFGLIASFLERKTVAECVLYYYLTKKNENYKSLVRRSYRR
# Sequence of HDAC2 (Q92769 whole entry): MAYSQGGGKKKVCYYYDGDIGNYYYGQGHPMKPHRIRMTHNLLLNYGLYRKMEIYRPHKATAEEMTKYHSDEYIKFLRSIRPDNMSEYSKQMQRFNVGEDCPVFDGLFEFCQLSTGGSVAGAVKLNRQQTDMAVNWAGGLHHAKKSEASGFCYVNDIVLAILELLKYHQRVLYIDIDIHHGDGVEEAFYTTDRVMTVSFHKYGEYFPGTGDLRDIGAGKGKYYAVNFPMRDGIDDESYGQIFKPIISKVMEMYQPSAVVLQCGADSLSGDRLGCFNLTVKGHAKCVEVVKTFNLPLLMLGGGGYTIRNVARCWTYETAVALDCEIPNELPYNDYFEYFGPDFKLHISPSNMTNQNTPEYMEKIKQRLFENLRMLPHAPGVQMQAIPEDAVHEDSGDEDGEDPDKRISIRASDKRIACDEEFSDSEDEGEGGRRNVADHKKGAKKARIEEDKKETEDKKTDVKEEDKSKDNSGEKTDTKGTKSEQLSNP
SMILES,bioavailability [1],AUC [1],Cmax [1],half-life [1],CL renal [1],IC50 (HDAC1; [6]),Cell based assay potency [2],Microsome stability (Microsome stability),IC50 (HDAC2; [7]),hERG (hERG channel),IC50 (HDAC3; [8]),solubility (Solubility),Cyp [3],other results
CC(C)NC(=O)N1CCC(C)(Nc2ncc(C(=O)Nc3cc(-c4cccs4)ccc3N)cn2)CC1 [Compound 001],63%,5960 ng·h/mL,988 ng/mL,3.8 h,8.83 mL/min/kg,6.5 nM,3 µM,11 min,38 nM,>30 µM,427 nM,16.9 µM,,
CC(C)C1(Nc2ncc(C(=O)Nc3cc(-c4cccs4)ccc3N)cn2)CCN(C(=O)N2CCN(C)CC2)CC1 [Compound 002],142%,6090 ng·h/mL,1010 ng/mL,5.9 h,20 mL/min/kg,7 nM,3 µM,,28 nM,>30 µM,203 nM,42.7 µM,>10 µM,
Nc1ccc(-c2cccs2)cc1NC(=O)c1cnc(NC2CCN(C(=O)N3CCOCC3)CC2)nc1 [Compound 003],118%,59900 ng·h/mL,2320 ng/mL,17 h,2 mL/min/kg,15 nM,3 µM,4.7 min,56 nM,>30 µM,204 nM,54 µM,>10 µM,"Ames ([4]; In vitro tox): Neg; number of revertant colonies ([4]; any strain, with or without S9 activation): did not increase; inhibition of activity of any Cyp ([3]; up to 10 μM): did not inhibit; inhibition of the activity of the hERG channel (hERG channel; at the highest concentration of 30 μM): did not inhibit; MN ([5]; In vitro tox): Neg; number of micronucleated cells ([5]; any concentration, 4 hours with or without S9 activation): did not increase"
"Nc1ccc(-c2cccs2)cc1NC(=O)c1ccc2nc(N3CCNCC3)ccc2c1 [Compound A, reference compound]",,,,,,,,,,,,,,"IC50 (HDAC1; reference compound, read-out: IC50 for HDAC1): ~4 nM; induction of % HbG ([2]; primary erythroid progenitors, 3 days differentiation (FIG. 6)): equivalent dose and time-dependent induction; IC50 (HDAC2; reference compound, read-out: IC50 for HDAC2): ~15 nM; induction of Gata2 mRNA (Gata2 mRNA): equivalent dose and time-dependent induction; IC50 (HDAC3; reference compound, read-out: IC50 for HDAC3): ~114 nM"
